Assay results reported in patent publication US9050344B2, “Therapeutic compounds” (Gilead Sciences, Inc., priority 2013, dated 2015).

Tests used:
HIV-IIIb = experiment: Test A: Antiviral Assay in MT4 Cells; format: cell-based, HIV-1; settings: Human immunodeficiency virus 1, IIIB, MT4, 120 h, read-out: % inhibition at 3 μM
Method: Test A: Antiviral Assay in MT4 Cells
For the antiviral assay, 40 μL of 1× test concentration of 3-fold serially diluted compound in culture medium with 10% FBS was added to each well of a 384-well plate (10 concentrations) in quadruplicate. MT-4 cells were next mixed with HIV-IIIb at an m.o.i of 0.003 for 1 hour, after which time 35 μL of virus/cell mixture (2000 cells) was immediately added to each well containing 40 μL of diluted compound. The plates were then incubated at 37° C. for 5 days. After 5 days of incubation, 25 μl of 2× concentrated CellTiter-Glo™ Reagent (catalog #G7571, Promega Biosciences, Inc., Madison, Wis.) was added to each well containing MT-4 cells. Cell lysis was carried out by incubating at room temperature for 10 min and then chemiluminescence was read.

[1] = Test B: Cytotoxicity Assay (protocol of Test A, uninfected cells); format: cell-based; settings: human, uninfected MT-4 cells, CellTiter-Glo
Method: Test B: Cytotoxicity Assay Compound cytotoxicity and the corresponding CC50 values was determined using the same protocol as described in the antiviral assay (Test A) except that uninfected cells were used.

Row | Compound | inhibition at 3 µM (HIV-IIIb) | CC50 at 5 days [1]
1 | NC(=O)c1cc(-c2cc(N3C(=O)c4ccccc4C3=O)cnc2[C@H](Cc2cc(F)cc(F)c2)NC(=O)Cn2nc(C(F)(F)F)c3c2C(F)(F)[C@@H]2C[C@H]32)ccc1F [Compound 30K, 5-(2-((S)-1-(2-((3bS,4aR)-5,5-difluoro-3-(trifluoromethyl)-3b,4,4a,5-tetrahydro-1H-cyclopropa[3,4]cyclopenta[1,2-c]pyrazol-1-yl)acetamido)-2-(3,5-difluorophenyl)ethyl)-5-(1,3-dioxoisoindolin-2-yl)pyridin-3-yl)-2-fluorobenzamide] | 48% | > 53.2 µM
2 | NC(=O)c1cc(-c2cc(N)cnc2[C@H](Cc2cc(F)cc(F)c2)NC(=O)Cn2nc(C(F)(F)F)c3c2C(F)(F)[C@@H]2C[C@H]32)ccc1F [Compound 31, 5-(5-amino-2-((S)-1-(2-((3bS,4aR)-5,5-difluoro-3-(trifluoromethyl)-3b,4,4a,5-tetrahydro-1H-cyclopropa[3,4]cyclopenta[1,2-c]pyrazol-1-yl)acetamido)-2-(3,5-difluorophenyl)ethyl)pyridin-3-yl)-2-fluorobenzamide] | 96% | 19.5 µM
3 | NC(=O)c1cc(-c2cc(N3C(=O)c4ccccc4C3=O)cnc2[C@H](Cc2cc(F)cc(F)c2)NC(=O)Cn2nc(C(F)F)c3c2C(F)(F)CCC3(F)F)ccc1F [Compound 32, (S)-5-(2-(1-(2-(3-(difluoromethyl)-4,4,7,7-tetrafluoro-4,5,6,7-tetrahydro-1H-indazol-1-yl)acetamido)-2-(3,5-difluorophenyl)ethyl)-5-(1,3-dioxoisoindolin-2-yl)pyridin-3-yl)-2-fluorobenzamide] | 37% | > 53.2 µM
4 | NC(=O)c1cc(-c2cc(N)cnc2[C@H](Cc2cc(F)cc(F)c2)NC(=O)Cn2nc(C(F)F)c3c2C(F)(F)CCC3(F)F)ccc1F [Compound 33, (S)-5-(5-amino-2-(1-(2-(3-(difluoromethyl)-4,4,7,7-tetrafluoro-4,5,6,7-tetrahydro-1H-indazol-1-yl)acetamido)-2-(3,5-difluorophenyl)ethyl)pyridin-3-yl)-2-fluorobenzamide] | 85% | 13.3 µM
5 | Cc1c(-c2cc(N)cnc2[C@H](Cc2cc(F)cc(F)c2)NC(=O)Cn2nc(C(F)(F)F)c3c2C(F)(F)[C@@H]2C[C@H]32)ccc2n[nH]c(=O)n12 [Compound 34, N—((S)-1-(5-amino-3-(5-methyl-3-oxo-2,3-dihydro-[1,2,4]triazolo[4,3-a]pyridin-6-yl)pyridin-2-yl)-2-(3,5-difluorophenyl)ethyl)-2-((3bS,4aR)-5,5-difluoro-3-(trifluoromethyl)-3b,4,4a,5-tetrahydro-1H-cyclopropa[3,4]cyclopenta[1,2-c]pyrazol-1-yl)acetamide] | 89% | 22.4 µM
6 | Cn1nc(NS(C)(=O)=O)c2cccc(-c3cc(N)cnc3[C@H](Cc3cc(F)cc(F)c3)NC(=O)Cn3nc(C(F)(F)F)c4c3C(F)(F)[C@@H]3C[C@H]43)c21 [Compound 35, N—((S)-1-(5-amino-3-(1-methyl-3-(methylsulfonamido)-1H-indazol-7-yl)pyridin-2-yl)-2-(3,5-difluorophenyl)ethyl)-2-((3bS,4aR)-5,5-difluoro-3-(trifluoromethyl)-3b,4,4a,5-tetrahydro-1H-cyclopropa[3,4]cyclopenta[1,2-c]pyrazol-1-yl)acetamide] | 93% | 23.9 µM
7 | Cn1nc(NS(C)(=O)=O)c2cccc(-c3cnc(N4CC(C)(O)C4)nc3[C@H](Cc3cc(F)cc(F)c3)NC(=O)Cn3nc(C(F)(F)F)c4c3C(F)(F)[C@@H]3C[C@H]43)c21 [Compound 36C, 2-((3bS,4aR)-5,5-difluoro-3-(trifluoromethyl)-3b,4,4a,5-tetrahydro-1H-cyclopropa[3,4]cyclopenta[1,2-c]pyrazol-1-yl)-N—((S)-2-(3,5-difluorophenyl)-1-(2-(3-hydroxy-3-methylazetidin-1-yl)-5-(1-methyl-3-(methylsulfonamido)-1H-indazol-7-yl)pyrimidin-4-yl)ethyl)acetamide] | 94% | 32.2 µM
8 | Cn1nc(NS(C)(=O)=O)c2cccc(-c3cnc(N4CC5(COC5)C4)nc3[C@H](Cc3cc(F)cc(F)c3)NC(=O)Cn3nc(C(F)(F)F)c4c3C(F)(F)[C@@H]3C[C@H]43)c21 [Compound 37, 2-((3bS,4aR)-5,5-difluoro-3-(trifluoromethyl)-3b,4,4a,5-tetrahydro-1H-cyclopropa[3,4]cyclopenta[1,2-c]pyrazol-1-yl)-N—((S)-2-(3,5-difluorophenyl)-1-(5-(1-methyl-3-(methylsulfonamido)-1H-indazol-7-yl)-2-(2-oxa-6-azaspiro[3.3]heptan-6-yl)pyrimidin-4-yl)ethyl)acetamide] | 95% | 34 µM
9 | CC(=O)Nc1cnc([C@H](Cc2cc(F)cc(F)c2)NC(=O)Cn2nc(C(F)(F)F)c3c2C(F)(F)[C@@H]2C[C@H]32)c(-c2cccc3c(N(C(C)=O)S(C)(=O)=O)nn(C)c23)c1 [Compound 38B] | 98% | 40.8 µM
10 | CC(=O)Nc1cnc([C@H](Cc2cc(F)cc(F)c2)NC(=O)Cn2nc(C(F)(F)F)c3c2C(F)(F)[C@@H]2C[C@H]32)c(-c2cccc3c(NS(C)(=O)=O)nn(C)c23)c1 [Compound 39, N—((S)-1-(5-acetamido-3-(1-methyl-3-(methylsulfonamido)-1H-indazol-7-yl)pyridin-2-yl)-2-(3,5-difluorophenyl)ethyl)-2-((3bS,4aR)-5,5-difluoro-3-(trifluoromethyl)-3b,4,4a,5-tetrahydro-1H-cyclopropa[3,4]cyclopenta[1,2-c]pyrazol-1-yl)acetamide] | 92% | 29.6 µM
11 | Cc1c(-c2cc(NC(=O)C(F)(F)F)cnc2[C@H](Cc2cc(F)cc(F)c2)NC(=O)Cn2nc(C(F)(F)F)c3c2C(F)(F)[C@@H]2C[C@H]32)ccc2n[nH]c(=O)n12 [Compound 40, N-(6-((S)-1-(2-((3bS,4aR)-5,5-difluoro-3-(trifluoromethyl)-3b,4,4a,5-tetrahydro-1H-cyclopropa[3,4]cyclopenta[1,2-c]pyrazol-1-yl)acetamido)-2-(3,5-difluorophenyl)ethyl)-5-(5-methyl-3-oxo-2,3-dihydro-[1,2,4]triazolo[4,3-a]pyridin-6-yl)pyridin-3-yl)-2,2,2-trifluoroacetamide] | 96% | 24.1 µM
12 | Cc1c(-c2cc(NS(C)(=O)=O)cnc2[C@H](Cc2cc(F)cc(F)c2)NC(=O)Cn2nc(C(F)(F)F)c3c2C(F)(F)[C@@H]2C[C@H]32)ccc2n[nH]c(=O)n12 [Compound 41E, 2-((3bS,4aR)-5,5-difluoro-3-(trifluoromethyl)-3b,4,4a,5-tetrahydro-1H-cyclopropa[3,4]cyclopenta[1,2-c]pyrazol-1-yl)-N—((S)-2-(3,5-difluorophenyl)-1-(3-(5-methyl-3-oxo-2,3-dihydro-[1,2,4]triazolo[4,3-a]pyridin-6-yl)-5-(methylsulfonamido)pyridin-2-yl)ethyl)acetamide] | 91% | > 50 µM
13 | Cn1nc(NS(C)(=O)=O)c2cccc(-c3ccc(N4CC(C)(O)C4)nc3[C@H](Cc3cc(F)cc(F)c3)NC(=O)Cn3nc(C(F)F)c4c3C(F)(F)[C@@H]3C[C@H]43)c21 [Compound 42K, 2-((3bS,4aR)-3-(difluoromethyl)-5,5-difluoro-3b,4,4a,5-tetrahydro-1H-cyclopropa[3,4]cyclopenta[1,2-c]pyrazol-1-yl)-N—((S)-2-(3,5-difluorophenyl)-1-(6-(3-hydroxy-3-methylazetidin-1-yl)-3-(1-methyl-3-(methylsulfonamido)-1H-indazol-7-yl)pyridin-2-yl)ethyl)acetamide] | 92% | 18.9 µM
14 | Cn1nc(NS(C)(=O)=O)c2cccc(-c3ccc(N4CC(N)CC4=O)nc3[C@H](Cc3cc(F)cc(F)c3)NC(=O)Cn3nc(C(F)(F)F)c4c3C(F)(F)[C@@H]3C[C@H]43)c21 (stereo partly drawn) [Compound 43B, N-((1S)-1-(6-(4-amino-2-oxopyrrolidin-1-yl)-3-(1-methyl-3-(methylsulfonamido)-1H-indazol-7-yl)pyridin-2-yl)-2-(3,5-difluorophenyl)ethyl)-2-((3bS,4aR)-5,5-difluoro-3-(trifluoromethyl)-3b,4,4a,5-tetrahydro-1H-cyclopropa[3,4]cyclopenta[1,2-c]pyrazol-1-yl)acetamide] | 83% | 16.9 µM
15 | Cc1nc([C@H](Cc2cc(F)cc(F)c2)NC(=O)Cn2nc(C(F)F)c3c2C(F)(F)[C@@H]2C[C@H]32)c(-c2cccc3c(NS(C)(=O)=O)nn(C)c23)cc1N [Compound 44, N—((S)-1-(5-amino-6-methyl-3-(1-methyl-3-(methylsulfonamido)-1H-indazol-7-yl)pyridin-2-yl)-2-(3,5-difluorophenyl)ethyl)-2-((3bS,4aR)-3-(difluoromethyl)-5,5-difluoro-3b,4,4a,5-tetrahydro-1H-cyclopropa[3,4]cyclopenta[1,2-c]pyrazol-1-yl)acetamide] | 107% | 32 µM
